Patent US8247573B2, “Substituted N-(2-mercaptopyridin-3-yl)amides as KCNQ2/3 modulators” (Gruenenthal GmbH, priority 2009, dated 2012)
pEC50, pIC50: −log10 of the molar value.

Target: T1, KCNQ2/3 channels (Homo sapiens, UniProt O43525+O43526)
T1 construct: expressed in transfected cells; host or cells: CHO-K1
Experiment: Fluorescence assay using a voltage-sensitive dye (fluorimetry)
Format: cell-based
Conditions: CHO-K1 cells expressing KCNQ2/3; for pEC50: agonistic activity; for Emax: relative to retigabine = 100%, negative values = antagonistic, read-out: Fluorimetry % efficacy (I/EC50, retigabine = 100%); for pIC50: antagonistic activity
Description: Pharmacological Experiments Fluorescence Assay Using a Voltage-Sensitive Dye
Human CHO-K1 cells expressing KCNQ2/3 channels are cultivated adherently at 37° C., 5% CO2 and 95% humidity in cell culture bottles (e.g. 80 cm^2 TC flasks, Nunc) with DMEM-high glucose (Sigma Aldrich, D7777) including 10% FCS (PAN Biotech, e.g. 3302-P270521) or alternatively MEM Alpha Medium (1×, liquid, Invitrogen, #22571), 10% foetal calf serum (FCS) (Invitrogen, #10270-106, heat-inactivated) and the necessary selection antibiotics.
Before being seeded out for the measurements, the cells are washed with a 1×DPBS buffer without Ca^2+/Mg^2+ (e.g. Invitrogen, #14190-094) and detached from the bottom of the culture vessel by means of Accutase (PAA Laboratories, #L11-007) (incubation with Accutase for 15 min at 37° C.). The cell count then present is determined using a CASY™ cell counter (TCC model, Schärfe System) in order subsequently to apply 20,000 to 30,000 cells/well/100 μl of the described nutrient medium, depending on density optimisation for the individual cell line, to 96-well measuring plates of the Corning™ CellBIND™ type (flat clear-bottom black polystyrene microplates, #3340). Incubation is then carried out for one hour at room temperature, without gassing or adjusting the humidity, followed by incubation for 24 hours at 37° C., 5% CO2 and 95% humidity.
The voltage-sensitive fluorescent dye from the Membrane Potential Assay Kit (Red™ bulk format part R8123 for FLIPR, MDS Analytical Technologies™) is prepared by dissolving the contents of a vessel of Membrane Potential Assay Kit Red Component A in 200 ml of extracellular buffer (ES buffer, 120 mM NaCl, 1 mM KCl, 10 mM HEPES, 2 mM CaCl2, 2 mM MgCl2, 10 mM glucose; pH 7.4). After removal of the nutrient medium, the cells are washed with 200 μl of ES buffer, then covered with a layer of 100 μl of the dye solution prepared above and incubated for 45 min at room temperature with exclusion of light.
The fluorescence measurements are carried out with a BMG Labtech FLUOstar™, BMG Labtech NOVOstar™ or BMG Labtech POLARstar™ instrument (525 nm excitation, 560 nm emission, bottom-read mode). After incubation of the dye, 50 μl of the substances to be tested in the desired concentrations, or 50 μl of ES buffer for control purposes, are introduced into separate cavities of the measuring plate and incubated for 30 min at room temperature whilst being shielded from light. The fluorescence intensity of the dye is then measured for 5 min and the fluorescence value F1 of each well is thus determined at a given, constant time. 15 μl of a […] KCl solution […] are then added to each well. The change in fluorescence is subsequently measured until all relevant measured values have been obtained (mainly […]). At a given time after KCl application, a fluorescence value F2 is determined, in this case at the time of the fluorescence peak.
For calculation, the fluorescence intensity F2 is compared with the fluorescence intensity F1, and the agonistic activity of the target compound on the potassium channel is determined therefrom. F2 and F1 are calculated as follows: […]
In order to determine whether a substance has an agonistic activity,
[formula] is determined by adding to the reaction batch only the buffer solution instead of the substance to be tested, determining the value F1K of the fluorescence intensity, adding the potassium ions as described above and measuring a value F2K of the fluorescence intensity. Then F2K and F1K are calculated as follows: […]
A substance has an agonistic activity on the potassium channel if
Independently of the comparison of
[formula] it is also possible to conclude that a target compound has an agonistic activity if an increase in
[formula] is to be observed as the dosage of the target compound increases.
Calculations of EC50 values are carried out with the aid of Prism v4.0 software (GraphPad Softwares™).

| Compound | pEC50 | Emax [%] | pIC50 |
| --- | --- | --- | --- |
| O=C(CC1CCCCC1)Nc1cccnc1SCCS(=O)(=O)c1ccccc1 [Example 1, N-[2-[2-(Benzenesulfonyl)-ethylsulfanyl]-pyridin-3-yl]-2-cyclohexyl acetamide] | 7.02 | 172 |  |
| O=C(CC1CCCCC1)Nc1cccnc1SCCS(=O)(=O)c1cccc(C(F)(F)F)c1 [Example 2, 2-Cyclohexyl-N-[2-[2-[[3-(trifluoromethyl)phenyl]sulfonyl]-ethylsulfanyl]-pyridin-3-yl]acetamide] | 7.57 | 142 |  |
| O=C(Nc1cccnc1SCCS(=O)(=O)c1ccccc1)c1ccccc1 [Example 4, N-[2-[2-(Benzenesulfonyl)-ethylsulfanyl]-pyridin-3-yl]benzamide] |  | 55 |  |
| O=C(Nc1cccnc1SCCS(=O)(=O)c1ccccc1)c1ccc(F)c(F)c1 [Example 5, N-[2-[2-(Benzenesulfonyl)-ethylsulfanyl]-pyridin-3-yl]-3,4-difluorobenzamide] | 6.33 | 129 |  |
| O=C(CCC1CCCCC1)Nc1cccnc1SCCS(=O)(=O)c1ccccc1 [Example 6, N-[2-[2-(Benzenesulfonyl)-ethylsulfanyl]-pyridin-3-yl]-3-cyclohexyl propionamide] | 7.12 | 225 |  |
| O=C(Cc1cccs1)Nc1cccnc1SCCS(=O)(=O)c1ccccc1 [Example 7, N-[2-[2-(Benzenesulfonyl)-ethylsulfanyl]-pyridin-3-yl]-2-thiophen-2-yl acetamide] | 6.37 | 125 |  |
| Cc1cc(C)cc(C(C)C(=O)Nc2cccnc2SCCS(=O)(=O)c2ccccc2)c1 (stereo not shown) [Example 8, N-[2-[2-(Benzenesulfonyl)-ethylsulfanyl]-pyridin-3-yl]-2-(3,5-dimethylphenyl)propionamide] |  | -68 | 6.49 |
| COc1ccccc1CC(=O)Nc1cccnc1SCCS(=O)(=O)c1cccc(C(F)(F)F)c1 [Example 9, 2-(2-Methoxyphenyl)-N-[2-[2-[[3-(trifluoromethyl)phenyl]sulfonyl]-ethylsulfanyl]-pyridin-3-yl]acetamide] |  | -45 | 6.72 |
| COc1ccc(CC(=O)Nc2cccnc2SCCS(=O)(=O)c2cccc(C(F)(F)F)c2)cc1 [Example 10, 2-(4-Methoxyphenyl)-N-[2-[2-[[3-(trifluoromethyl)phenyl]sulfonyl]-ethylsulfanyl]-pyridin-3-yl]acetamide] | 7.26 | 74 |  |
| COc1cccc(CC(=O)Nc2cccnc2SCCS(=O)(=O)c2cccc(C(F)(F)F)c2)c1 [Example 11, 2-(3-Methoxyphenyl)-N-[2-[2-[[3-(trifluoromethyl)phenyl]sulfonyl]-ethylsulfanyl]-pyridin-3-yl]acetamide] | 6.23 | 109 |  |
| O=C(Cc1ccccc1O)Nc1cccnc1SCCS(=O)(=O)c1cccc(C(F)(F)F)c1 [Example 12, 2-(2-Hydroxyphenyl)-N-[2-[2-[[3-(trifluoromethyl)phenyl]sulfonyl]-ethylsulfanyl]-pyridin-3-yl]acetamide] | 6.77 | 141 |  |
| O=C(Cc1ccc(O)cc1)Nc1cccnc1SCCS(=O)(=O)c1cccc(C(F)(F)F)c1 [Example 13, 2-(4-Hydroxyphenyl)-N-[2-[2-[[3-(trifluoromethyl)phenyl]sulfonyl]-ethylsulfanyl]-pyridin-3-yl]acetamide] |  | 46 |  |
| O=C(CC1CCCC1)Nc1cccnc1SCCS(=O)(=O)c1cccc(C(F)(F)F)c1 [Example 14, 2-Cyclopentyl-N-[2-[2-[[3-(trifluoromethyl)phenyl]sulfonyl]-ethylsulfanyl]-pyridin-3-yl]acetamide] | 7.35 | 167 |  |
| O=C(Nc1cccnc1SCCS(=O)(=O)c1cccc(C(F)(F)F)c1)c1cccs1 [Example 18, N-[2-[2-[[3-(Trifluoromethyl)phenyl]sulfonyl]-ethylsulfanyl]-pyridin-3-yl]-thiophene-2-carboxylic acid amide] | 6.34 | 43 |  |
| O=C(Nc1cccnc1SCCS(=O)(=O)c1cccc(C(F)(F)F)c1)C1CCCCC1 [Example 19, N-[2-[2-[[3-(Trifluoromethyl)phenyl]sulfonyl]-ethylsulfanyl]-pyridin-3-yl]-cyclohexane carboxylic acid amide] |  | -43 |  |

Results, then the molecule that gave them:

| pEC50 | Emax [%] | pIC50 | Compound |
| --- | --- | --- | --- |
| 6.74 | 97 |  | O=C(Cc1cccs1)Nc1cccnc1SCCSc1cccc(C(F)(F)F)c1 [Example 20, 2-Thiophen-2-yl-N-[2-[2-[[3-(trifluoromethyl)phenyl]sulfanyl]-ethylsulfanyl]-pyridin-3-yl]acetamide] |
| 7.08 | 152 |  | O=C(Cc1cccs1)Nc1cccnc1SCCSc1ccccc1 [Example 21, N-[2-(2-Phenylsulfanyl-ethylsulfanyl)-pyridin-3-yl]-2-thiophen-2-yl acetamide] |
| 6.14 | 155 |  | O=C(Cc1cccs1)Nc1cccnc1SCCOc1cccc(C(F)(F)F)c1 [Example 22, 2-Thiophen-2-yl-N-[2-[2-[3-(trifluoromethyl)-phenoxy]-ethylsulfanyl]-pyridin-3-yl]acetamide] |
| 6.80 | 165 |  | O=C(Cc1cccs1)Nc1cccnc1SCCCc1cccc(C(F)(F)F)c1 [Example 23, 2-Thiophen-2-yl-N-[2-[3-[3-(trifluoromethyl)phenyl]-propylsulfanyl]-pyridin-3-yl]acetamide] |
| 6.82 | 84 |  | O=C(Cc1ccc2ccccc2c1)Nc1cccnc1SCCS(=O)(=O)c1cccc(C(F)(F)F)c1 [Example 24, 2-Naphthalen-2-yl-N-[2-[2-[[3-(trifluoromethyl)phenyl]sulfonyl]-ethylsulfanyl]-pyridin-3-yl]acetamide] |
| 7.15 | 170 |  | O=C(CCCc1ccccc1)Nc1cccnc1SCCS(=O)(=O)c1cccc(C(F)(F)F)c1 [Example 25, 4-Phenyl-N-[2-[2-[[3-(trifluoromethyl)phenyl]sulfonyl]-ethylsulfanyl]-pyridin-3-yl]-butyramide] |
| 6.91 | 82 |  | O=C(CCc1cccs1)Nc1cccnc1SCCS(=O)(=O)c1cccc(C(F)(F)F)c1 [Example 26, 3-Thiophen-2-yl-N-[2-[2-[[3-(trifluoromethyl)phenyl]sulfonyl]-ethylsulfanyl]-pyridin-3-yl]propionamide] |
| 6.68 | 112 |  | O=C(CCc1ccccc1)Nc1cccnc1SCCS(=O)(=O)c1cccc(C(F)(F)F)c1 [Example 27, 3-Phenyl-N-[2-[2-[[3-(trifluoromethyl)phenyl]sulfonyl]-ethylsulfanyl]-pyridin-3-yl]propionamide] |
| 6.56 | 152 |  | O=C(CCC1CCCC1)Nc1cccnc1SCCS(=O)(=O)c1cccc(C(F)(F)F)c1 [Example 28, 3-Cyclopentyl-N-[2-[2-[[3-(trifluoromethyl)phenyl]sulfonyl]-ethylsulfanyl]-pyridin-3-yl]propionamide] |
| 6.51 | 108 |  | O=C(CC1CCCCC1)Nc1cccnc1SCCSc1cccc(C(F)(F)F)c1 [Example 29, 2-Cyclohexyl-N-[2-[2-[[3-(trifluoromethyl)phenyl]sulfanyl]-ethylsulfanyl]-pyridin-3-yl]acetamide] |
| 6.08 | 109 |  | O=C(/C=C/c1ccc(F)cc1)Nc1cccnc1SCCS(=O)(=O)c1cccc(C(F)(F)F)c1 [Example 31, (E)-3-(4-Fluorophenyl)-N-[2-[2-[[3-(trifluoromethyl)phenyl]sulfonyl]-ethylsulfanyl]-pyridin-3-yl]acrylamide] |
